According to publication PMC12038849, “Identification and Characterization of a Leoligin-Inspired Synthetic Lignan as a TGR5 Agonist” (Journal of Natural Products, 2025):

Target: T1, G-protein coupled bile acid receptor 1 (GPBAR1 or TGR5) (Homo sapiens, UniProt Q8TDU6)
T1 construct: human TGR5-ORF (NM_170699), stably expressed in HEK EPAC cells
T1 sequence (Q8TDU6 1-330): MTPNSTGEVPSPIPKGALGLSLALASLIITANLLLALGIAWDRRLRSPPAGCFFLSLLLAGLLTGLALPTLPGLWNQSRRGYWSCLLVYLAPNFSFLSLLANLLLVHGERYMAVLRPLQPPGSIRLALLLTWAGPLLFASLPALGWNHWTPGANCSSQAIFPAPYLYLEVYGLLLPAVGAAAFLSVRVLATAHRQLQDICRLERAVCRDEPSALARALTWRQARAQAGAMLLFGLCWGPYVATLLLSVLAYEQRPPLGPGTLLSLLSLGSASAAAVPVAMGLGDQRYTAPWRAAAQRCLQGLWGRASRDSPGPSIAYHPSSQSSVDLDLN
Assay: EPAC FRET cAMP accumulation assay in TGR5-expressing HEK cells; inactive in non-TGR5 cells
Format: cell-based

Compound: C/C=C(/C)C(=O)OCC[C@H]1[C@@H](Cc2ccc(OC)c(OC)c2)CO[C@@H]1c1ccc(OC)c(OC)c1 [compound 1, LT-188A]
- EC50: 23 µM
